# Source: article PMC7660103, “Discovery of Novel 3-Cyanopyridines as Survivin Modulators and Apoptosis Inducers” (Molecules, 2020)
# Legend:
# [1] = tested on: MDA-MB-231 cells; assay: Annexin V-FITC/PI apoptosis assay; type: cell-based, human
# Description: So, inhibiting survivin should result in increased spontaneous apoptosis in tumor cells. In this study, the apoptotic potential of 5c and 5e was further assessed using Annexin V-FITC assay.
# MDA-MB-231 cells were plated in 24-well tissue culture plates. […] After 48 h, cells that floated were collected from the medium. The adherent cells were separated using 0.05% trypsin. After that, a 10% FBS medium was added for inactivating trypsin. Following slow pipetting, the centrifugation of cells was done for 5 min at 1500× g. Then, the supernatant was discarded, and cells were then stained with double annexin V-fluorescein isothiocyanate in addition to propidium iodide (PI) staining following the manufacturer’s directions. Analysis of the cells was investigated using a FACScan flow cytometer.
# [2] = tested on: breast cancer (MDA-MB-231) cells; assay: SRB cytotoxicity assay, MDA-MB-231; type: cell-based, human
# Description: (§1) In the present work, sulforhodamine B (SRB) colorimetric assay was done to evaluate the cytotoxic activity of the synthesized 3-cyano pyridines 4a–4e, 5a–5e, and 6a–6e on three human cancer cell lines: prostate carcinoma (PC-3), breast cancer (MDA-MB-231) and hepatocellular carcinoma (HepG2) cell lines. 5-FU was used as a standard drug for comparison.
# (§2) Human cancer cells were obtained from Nawah Scientific Inc. (Mokatam, Cairo, Egypt). Cells were maintained in DMEM media containing […] streptomycin, 100 units/mL penicillin, and 10% heat-inactivated fetal bovine serum in humified, 5% (v/v) CO2 atmosphere at 37 °C.
# (§3) Cell viability was estimated using the SRB assay. Aliquots of 100 µL cell suspension (5 × 10^3 cells) in 96-well plates were incubated in complete media for 24 h. Cells were treated with a second aliquot of 100 µL media containing various concentrations of the tested compounds (0.01, 0.1, 1, 10, and 100 μM). After 72 h, cells were fixed by replacing media with 15 µL of 10% TCA and then incubated at 4 °C for 1 h. After that, TCA solution was removed, and the cells were washed 5 times with distilled water. Aliquots of 70 µL SRB solution (0.4% w/v) were added and incubated in a dark place at room temperature for 10 min. Plates were washed 3 times with 1% acetic acid and allowed to air dry overnight. Then, 150 µL of TRIS (10 mM) was added to dissolve protein-bound SRB stain. The absorbance was measured at 540 nm using BMG LABTECH®-FLUO star Omega microplate reader (Ortenberg, Germany).
# [3] = tested on: Livin; assay: Western blotting of Livin in MDA-MB-231 cells; type: cell-based, human
# Description: (§4) The ability of the 2-oxo-3-cyano pyridines 5c and 5e to cause an inhibition of survivin was evaluated by the use of Western blotting analysis in MDA-MB-231cells treated with different concentrations of both compounds (1, 5, and 10 µM). […] Furthermore, to test the effect of these compounds on some other IAP family proteins, the Western plot of Livin, XIAP, and C-IAP1 proteins was performed (Figure 6). […] The Supplementary Material Figures S40 and S41 contain western blotting analysis for 5c and 5e.
# (§5) MDA-MB-231 cancer cells were incubated with 5c and 5e at different concentrations (1, 5, and 10 µM) for 48 h. Afterwards, the medium was detached, and the cells were washed using PBS (10 mmol/L, pH 7.4). Then, the cells were incubated on cold lysis buffer (50 mmol/L Tris–HCl, 150 mmol/L NaCl, 1 mmol/L EGTA, 1 mmol/L EDTA, 20 mmol/L NaF, […], 0.5% NP40, 1% Triton X-100, 1 mmol/L PMSF (pH 7.4)) and a freshly added cocktail inhibitor (Inhibitor Cocktail Set III, Calbiochem, La Jolla, CA) above ice for 30 min. Then, MDA-MB-231 cells were collected and centrifuged at 12,000× g for 15 min.
# (§6) XIAp, Survivin, Livin, and cIAP1anti-mouse, anti-rabbit secondary antibodies, and GAPDH were purchased from Sigma-Aldrich, whereas the gel was obtained from BioRad. Polyacrylamide gels were moved to a nitrocellulose membrane in order to block in buffer (7% nonfat dry milk/1% Tween 20; in 20 mmol/L TBS (pH 7.6)) for 1 h and incubated for 2 h at room temperature with the suitable primary antibody in blocking buffer or overnight at 4 °C; then, they were incubated with secondary antibody HRP conjugate. Finally, the blots analysis was done using the imaging system.
# [4] = tested on: XIAP; assay: Western blotting of XIAP in MDA-MB-231 cells; type: cell-based, human
# Description: as §4, §5, §6
# [5] = target: T1, survivin (Homo sapiens, UniProt O15392); assay: Western blotting of survivin in MDA-MB-231 cells; type: cell-based
# T1 construct: Western blotting analysis in MDA-MB-231cells treated with different concentrations of both compounds; endogenous in cells; host or cells: MDA-MB-231
# Description: as §4, §5, §6
# [6] = tested on: normal cell line WI-38; assay: SRB cytotoxicity assay, normal cell line WI-38; type: cell-based; conditions: Homo sapiens, WI-38, mean ± SD of three experiments
# Description: The cytotoxicity of the newly synthesized compounds on the normal cell line WI-38 was also evaluated in order to examine the safety of these compounds.
# as §3
# [7] = tested on: hepatocellular carcinoma (HepG2) cells; assay: SRB cytotoxicity assay, HepG2; type: cell-based, human
# Description: as §1, §2, §3
# T1 sequence (O15392 whole entry): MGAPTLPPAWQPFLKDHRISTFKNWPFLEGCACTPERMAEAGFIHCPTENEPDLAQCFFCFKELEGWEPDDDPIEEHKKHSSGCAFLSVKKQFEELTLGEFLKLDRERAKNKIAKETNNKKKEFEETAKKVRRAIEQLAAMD
smiles,measurement,setting,value
"N#Cc1c(-c2ccc(Cl)cc2)cc(-c2ccc(OCc3ccc(F)cc3)cc2)[nH]c1=O [Compound 5c, 4-(4-Chlorophenyl)-6-(4-((4-fluorobenzyl)oxy)phenyl)-2-oxo-1,2-dihydropyridine-3-carbonitrile]",total increase in apoptotic and necrotic cells compared to control,"[1]; MDA-MB-231, Annexin V-FITC",8.72 fold
same,Percent of cell death: Apoptosis Late,"[1]; MDA-MB-231, IC50 concentration, 48 h, control 0.31",8.67%
same,Percent of cell death: Necrosis,"[1]; MDA-MB-231, IC50 concentration, 48 h, control 0.47",2.58%
same,Percent of cell death: Apoptosis Early,"[1]; MDA-MB-231, IC50 concentration, 48 h, control 1.09",5.07%
same,Percent of cell death: Total,"[1]; MDA-MB-231, IC50 concentration, 48 h, control 1.87",16.32%
same,IC50,"[2]; Homo sapiens, MDA-MB-231, 72 h, SRB assay, 72 h, mean ± SD of three experiments",20 ± 0.17 µM
same,Selectivity Index MDA-MB-231,[2]; SI = IC50 on WI-38/IC50 on MDA-MB-231,4.56
same,LIVIN band %,"[3]; MDA-MB-231, 1µM",20.2%
same,LIVIN band Area,"[3]; MDA-MB-231, 1µM",1305
same,LIVIN band Height,"[3]; MDA-MB-231, 1µM",134
same,LIVIN band Width,"[3]; MDA-MB-231, 1µM",22
same,LIVIN band %,"[3]; MDA-MB-231, 5µM",13.4%
same,LIVIN band Area,"[3]; MDA-MB-231, 5µM",793
same,LIVIN band Height,"[3]; MDA-MB-231, 5µM",84
same,LIVIN band Width,"[3]; MDA-MB-231, 5µM",17
same,LIVIN band %,"[3]; MDA-MB-231, 10µM",9.1%
same,LIVIN band Area,"[3]; MDA-MB-231, 10µM",514
same,LIVIN band Height,"[3]; MDA-MB-231, 10µM",66
same,LIVIN band Width,"[3]; MDA-MB-231, 10µM",17
same,"Livin protein level (Western blot, in words)","[3]; MDA-MB-231, 1, 5 and 10 µM",decreased the levels of these proteins
same,XIAP band %,"[4]; MDA-MB-231, 1µM",16.3%
same,XIAP band Area,"[4]; MDA-MB-231, 1µM",970
same,XIAP band Height,"[4]; MDA-MB-231, 1µM",99
same,XIAP band Width,"[4]; MDA-MB-231, 1µM",22
same,XIAP band %,"[4]; MDA-MB-231, 5µM",15.1%
same,XIAP band Area,"[4]; MDA-MB-231, 5µM",921
same,XIAP band Height,"[4]; MDA-MB-231, 5µM",88
same,XIAP band Width,"[4]; MDA-MB-231, 5µM",19
same,XIAP band %,"[4]; MDA-MB-231, 10µM",14.2%
same,XIAP band Area,"[4]; MDA-MB-231, 10µM",853
same,XIAP band Height,"[4]; MDA-MB-231, 10µM",82
same,XIAP band Width,"[4]; MDA-MB-231, 10µM",19
same,"XIAP protein level (Western blot, in words)","[4]; MDA-MB-231, 1, 5 and 10 µM",decreased the levels of these proteins
same,Survivin band %,"[5]; MDA-MB-231, 1µM",38.3%
same,Survivin band Area,"[5]; MDA-MB-231, 1µM",2261
same,Survivin band Height,"[5]; MDA-MB-231, 1µM",156
same,Survivin band Width,"[5]; MDA-MB-231, 1µM",26
same,Survivin band %,"[5]; MDA-MB-231, 5µM",25.9%
same,Survivin band Area,"[5]; MDA-MB-231, 5µM",1674
same,Survivin band Height,"[5]; MDA-MB-231, 5µM",137
same,Survivin band Width,"[5]; MDA-MB-231, 5µM",16
same,Survivin band %,"[5]; MDA-MB-231, 10µM",15.6%
same,Survivin band Area,"[5]; MDA-MB-231, 10µM",1028
same,Survivin band Height,"[5]; MDA-MB-231, 10µM",121
same,Survivin band Width,"[5]; MDA-MB-231, 10µM",13
same,"survivin expression (Western blot, in words)","[5]; MDA-MB-231, 1, 5 and 10 µM",remarkable inhibition of survivin expression
same,IC50,[6],91.29 ± 0.47 µM
same,IC50,"[7]; Homo sapiens, HepG2, 72 h, SRB assay, 72 h, mean ± SD of three experiments",15 ± 0.64 µM
same,Selectivity Index HepG2,[7]; SI = IC50 on WI-38/IC50 on HepG2,6.08
